Reference: US20090099197A1 (priority 2005, published 2009)
“Also recorded” adds a separate entry of the source. Read-outs that look alike come from different tables or passages of the source.

Assays:
wild-type BCR-ABL = conditions: cited from earlier work
[1] = tested on: imatinib-resistant BCR-ABL mutants; conditions: cited from earlier work
[2] = tested on: K562/ADM (K562 cells over-expressing MDR-1); test: In vitro proliferation/cytotoxicity assay, MDR-1 overexpressing K562/ADM cells; format: cell-based, human; conditions: for IC50: Homo sapiens
Description: Two cell lines were used: K562 (erythromyeloblastoid CML) and K562/ADM (K562 cells over-expressing MDR-1).
Experiments were performed as described in Example 1 except that K562/ADM cells were used.

[3] = tested on: K562 (erythromyeloblastoid CML) cells; test: cells; conditions: Homo sapiens, K562, 72 h
[4] = tested on: K562/STI-571/R tumor xenografts; test: Tumor response in imatinib-resistant K562/STI-571/R xenograft model; format: in vivo, SCID mice
in vivo = conditions: SCID, mouse
Description: Concentrations and dosing frequency are as specified in FIG. 4A. […] Experiments were performed as described in Example 4.

[5] = tested on: K562/ADM tumor xenografts; test: Tumor response in SC K562/ADM leukemia xenograft model; format: in vivo, mice; conditions: QDx14
Description: (B) Activity versus K562/ADM tumor xenografts. Mice were implanted subcutaneously (SC) on Day 0 with K562/ADM. On Day 18 when tumors were at a size range of 100-200 mg, treatment began. […] Experiments were performed as described in Example 3.
Tumors implanted in mouse xenograft models were allowed to grow to a pre-determined size of 100-300 mg (tumors outside the range were excluded) and animals were evenly distributed to treatment and control groups. Treated animals were checked daily for treatment-related toxicity/mortality. […] The difference in body weight (Wt2−Wt1) provides a measure of treatment-related toxicity. Tumor weights (mg) were estimated from the formula: tumor weight=(length×width^2)/2.
Log cell kill was also used as a measure of anti-tumor activity according to the following equation: log cell kill=T−C/(3.32×TVDT). In this equation: T=mean tumor weight at the end of treatment for the treated group; C=mean tumor weight at the end of treatment for the control group; and TVDT=median time (days) for control tumor weight to reach target size−median time (days) for control tumor weight to reach half the target size.
A maximum tolerated dose (MTD), frequently equivalent to the optimal dose, was defined as a dose immediately below that causing unacceptable toxicity (i.e. more than one death) or, in the absence of any deaths, when accompanied by >20% loss of body weight.

intracranial K562 cells = test: Bioluminescence imaging of intracranially inoculated K562 cells; format: in vivo, SCID mice; conditions: 15 mg/kg, 2qdx14, M-F, po
Description: Experiments were performed as described in Example 4.

[6] = tested on: K562-R (K562/STI-571/R) imatinib resistant cells; test: cells; conditions: Homo sapiens, K-562R
[7] = tested on: K562 intracranial CML tumor model; test: Survival of mice bearing intracranial K562 CML; format: in vivo; conditions: BIDx10
Description: Extramedullary complications, particular in the CNS, are known risks of Ph+ALL or Ph+CML in lymphoid blast crisis. […] Both drugs were administered orally to mice inoculated intracranially (IC) with K562 cells using a BID×10 treatment schedule.

[8] = tested on: K562-R (K562/STI-571/R) imatinib resistant cells
[9] = tested on: K562 (erythromyeloblastoid CML) cells
[10] = K562 cells, 72 hours incubation

SMILES: Cc1cn(-c2cc(NC(=O)c3ccc(C)c(Nc4nccc(-c5cccnc5)n4)c3)cc(C(F)(F)F)c2)cn1 [AMN107]
- imatinib-resistant BCR-ABL mutants/mutations against which active [1]: 32/33

SMILES: COc1cccc2c1C(=O)c1c(O)c3c(c(O)c1C2=O)C[C@@](O)(C(=O)CO)C[C@@H]3O[C@H]1C[C@H](N)[C@H](O)[C@H](C)O1 [adriamycin]
- IC50 ([2]; K562/ADM cells, read-out: IC50): 1250 nM
- fold resistance (IC50 K562/ADM versus K562) ([2]; K562/ADM versus parent K562 cells): 60 fold
- IC50 [3]: 21 nM

SMILES: Cc1nc(Nc2ncc(C(=O)Nc3c(C)cccc3Cl)s2)cc(N2CCN(CCO)CC2)n1 [dasatinib, N-(2-chloro-6-methylphenyl)-2-[[6-[4-(2-hydroxyethyl)-1-piperazinyl]-2-methyl-4-pyrimidinyl]amino]-5-thiazolecarboxamide]
- IC50 ([2]; K562, K562/ADM cells): ~3 nM
- effect on tumor ([4]; dasatinib 5 mg/kg (lowest dose)): tumor regressed initially
- effect on tumor size ([4]; dasatinib, all doses except the lowest tested (5 mg/kg)): substantial reductions in tumor size
- Kp (in vivo): 0.05 to 0.1
- anti-leukemic activity ([5]; 5 mg/kg PO): inactive
- growth delay ([5]; 15 mg/kg PO, P=0.0009): 16.7 days
- anti-leukemic activity ([5]; 30 mg/kg PO): completely eliminated tumors
- bioluminescence of intracranial K562 cells after treatment (intracranial K562 cells): virtually no bioluminescence; also recorded: marked reduction of bioluminescence
- IC50 [6]: 4.4 nM
- increase in lifespan (ILS) ([7]; 5 mg/kg/adm oral): 268%
- increase in lifespan (ILS) ([7]; 15 mg/kg/adm oral): 450%
- IC50 [3, 10]: 0.7 nM
- resistance factor (IC50 K562-R versus K562) [8]: 6 fold
- IC50 [9, 10]: 0.5 nM
- sensitivity of K562 cells (percent growth inhibition), comparison ([9]; dasatinib versus imatinib or AMN107, FIG. 1A): significantly more sensitive to dasatinib than either imatinib or AMN107

SMILES: Cc1ccc(NC(=O)c2ccc(CN3CCN(C)CC3)cc2)cc1Nc1nccc(-c2cccnc2)n1 [imatinib, reference compound]
- effect on tumors ([4]; imatinib 75 and 150 mg/kg three times daily): little or no impact
